Results: publication PMC3070790 (Bioorganic & medicinal chemistry letters, 2011)
“Also recorded” adds a separate entry of the source. Where two headings read alike, the source gives them in different places.

What was measured:
[1] = biological target: T1, light chain of BoNT serotype A (LC/A) (Clostridium botulinum, UniProt P0DPI1); conditions: cited from earlier work
[2] = biological target: T1, light chain of BoNT serotype A (LC/A); type: biochemical
[3] = test system: primary rat cerebellar neurons; type: cell-based

T1 sequence (P0DPI1 2-448 limits assumed): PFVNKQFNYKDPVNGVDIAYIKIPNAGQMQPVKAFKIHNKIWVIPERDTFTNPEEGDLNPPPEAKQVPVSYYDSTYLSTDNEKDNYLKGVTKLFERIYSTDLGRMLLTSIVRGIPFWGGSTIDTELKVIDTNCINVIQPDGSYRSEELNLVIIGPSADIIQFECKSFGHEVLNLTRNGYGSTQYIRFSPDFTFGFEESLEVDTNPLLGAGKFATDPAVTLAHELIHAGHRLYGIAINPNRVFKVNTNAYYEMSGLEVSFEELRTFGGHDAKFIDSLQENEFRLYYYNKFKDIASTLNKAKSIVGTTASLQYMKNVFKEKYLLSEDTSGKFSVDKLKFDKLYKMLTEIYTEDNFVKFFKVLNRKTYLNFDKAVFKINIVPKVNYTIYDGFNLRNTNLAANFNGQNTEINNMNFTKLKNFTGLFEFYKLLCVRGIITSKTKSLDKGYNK

For O=C(/C=C/c1ccc(O)c(O)c1)O[C@H](C(=O)O)[C@H](OC(=O)/C=C/c1ccc(O)c(O)c1)C(=O)O [D-chicoric acid], the mechanism of inhibition [1] is listed as “noncompetitive partial inhibition”.
With C=C(C)[C@@H]1CC[C@]2(COC(=O)COc3cc(C(C)C)ccc3C)CC[C@]3(C)[C@H](CC[C@@H]4[C@@]5(C)CC[C@H](O)C(C)(C)[C@@H]5CC[C@]43C)[C@@H]12 [Compound 8, betulinyl 28-carboxymethoxycarvacrolate] the “fold less potent than 7 (Ki)” value [2] was “about 16 fold” and the mechanism of inhibition [2] was “competitive”.
For C=C(C)[C@@H]1CC[C@]2(COC(=O)CCC(=O)O)CC[C@]3(C)[C@H](CC[C@@H]4[C@@]5(C)CC[C@H](O)C(C)(C)[C@@H]5CC[C@]43C)[C@@H]12 [Compound 7, 28-hemisuccinylbetulin], the “protection against BoNT/A (intracellular SNAP-25 cleavage)” value [3] was “did not show any protection; also recorded: did not show inhibitory activity; also recorded: did not demonstrate protection”, the Ki [2] was “sub-micromolar” and the mechanism of inhibition [2] was “competitive”.
With C=C(C)[C@@H]1CC[C@]2(C(=O)O)CC[C@]3(C)[C@H](CC[C@@H]4[C@@]5(C)CC[C@H](O)C(C)(C)[C@@H]5CC[C@]43C)[C@@H]12 [Compound 18, betulinic acid] the “fold less potent than 7 (Ki)” value [2] was ~18 fold and the mechanism of inhibition [2] was “competitive”.
